Experimental data published in patent publication US9493528B2, “Microphthalmia-associated transcription factor-derived peptide and composition containing same” (KNU-INDUSTRY COOPERATION FOUNDATION, priority 2013, dated 2016).
No end group written: not given here.

What was measured:
[1] = system: tyrosinase (TYR); assay: Gene expression of tyrosinase in B16F1 cells (RT-PCR); format: cell-based, mouse; settings: α-MSH, 72 hours, FIG. 7
Procedure: (§1) B16F1 cells (Korean Cell Line Bank, Seoul) were added to each well of a 6-well plate (1.5×10^5 cells per well), along with 2 ml of DMEM, and then stabilized through incubating in a 5% CO2 incubator at 37° C. for 24 hours. α-MSH (Sigma Co, MO, USA), a melanocyte-stimulating hormone, was treated to each well, along with the peptide of SEQ ID NO: 3 in predetermined concentrations. After incubating the plate for 72 hours, the total RNAs were extracted therefrom and then cDNAs were synthesized. The cDNA syntheses were carried out with a Reverse Transcription Master premix (Elpisbiotech, Daejeon, Korea). Using each synthesized cDNA as a template, reverse transcription polymerase chain reaction (RT-PCR) was carried out with a ROTOR Q GENE apparatus. Each RT-PCR solution was prepared by mixing 1 μl of cDNA, 10 μl of TOPreal qRT-PCR2X premix (Enzynomics, Daejeon, Korea), 2 μl of primer set (10 pmol) and 7 μl of D. W. The RT-PCR was carried out as follows: initially at 94° C. for 10 minutes; and then at 94° C. for 10 seconds, at 58° C. for 30 seconds, and at 72° C. for 1 minute; 40 cycles.
(§2) The results obtained by measuring the gene expressions of tyrosinase, TRP-1 and TRP-2 through the above RT-PCR are shown in FIG. 7.

[2] = system: tyrosinase; assay: Inhibitory activity against tyrosinase activity in mouse melanoma cell line B16F1 (L-DOPA); format: cell-based; settings: B16F1 cells, α-MSH, 72 hours, extracts with L-DOPA 2 hours, absorbance at 490, FIG. 6
Procedure: B16F1 cells (Korean Cell Line Bank, Seoul) were added to each well of a 24-well plate (5×10^4 cells per well), along with 1 ml of DMEM, and then stabilized through incubating in a 5% CO2 incubator at 37° C. for 24 hours. α-MSH (Sigma Co, MO, USA), a melanocyte-stimulating hormone, was treated to each well, along with the peptide of SEQ ID NO: 3 in predetermined concentrations. After incubating the plate for 72 hours, the proteins were extracted therefrom. The obtained extracts were added to each well of a 96-well plate and then treated with a L-dihydroxyphenylalanine (L-DOPA) solution (100 μL) at 37° C. for 2 hours. After 2 hours, the pictures thereof were taken and the tyrosinase activities thereof were measured at […] with a microreader.

[3] = system: TRP-1; assay: Gene expression of TRP-1 in B16F1 cells (RT-PCR); format: cell-based, mouse; settings: α-MSH, 72 hours, FIG. 7
Procedure: as §1, §2

[4] = system: TRP-2; assay: Gene expression of TRP-2 in B16F1 cells (RT-PCR); format: cell-based, mouse; settings: α-MSH, 72 hours, FIG. 7
Procedure: as §1, §2

[5] = system: mouse melanoma cell line B16F1; assay: Inhibitory activity against melanin formation in mouse melanoma cell line B16F1; format: cell-based; settings: B16F1 cells, α-MSH 100 nM, peptide 0.1, 1 and 10 μM, 24 hours, FIG. 5
Procedure: B16F1 cells (Korean Cell Line Bank, Seoul) were added to each well of a 6-well plate (1.5×10^5 cells per well), along with 2 ml of DMEM, and then incubated in a 5% CO2 incubator at 37° C. for 24 hours. α-MSH (Sigma Co, MO, USA) (100 nM) was treated to each well, along with the peptide of SEQ ID NO: 3 in the final concentrations of 0.1, 1, and 10 μM. The groups in which α-MSH (100 nM) and foskolin (Sigma Co, MO, USA) (10 μM) were respectively treated were used as positive controls. And also, the group having no treatment (i.e., no α-MSH (100 nM) treatment) and the group in which α-MSH (100 nM) and Kojic acid (Sigma Co, MO, USA) (800 μM) were treated were used as negative controls. After additionally incubating the plate for 24 hours, the pictures of each culture ware taken so as to compare the respective levels of melanin formation.

[6] = system: B16F1 cells; assay: Inhibitory activity against proliferation of mouse melanoma cell line B16F1 (CCK-8); format: cell-based; settings: peptide 0.01, 0.1, 1 or 10 μM, 24, 48 and 72 hours, CCK-8, FIG. 8
Procedure: B16F1 cells (Korean Cell Line Bank, Seoul) were added to each well of a 96-well plate (5×10^3 cells per well), along with 100 μL of DMEM, and then incubated in a 5% CO2 incubator at 37° C. for 24 hours. The respective wells were treated with 10 μL of each peptide solution of SEQ ID NO: 3 having a concentration of 0.01, 0.1, 1, or 10 μM. After incubating the plate for 24, 48, and 72 hours, each well was treated with CCK-8 (Dojindo Laboratories, Japan) for 1 hour and then the absorbance thereof was measured at 450 nm, using a Spectramax plus 190 plate reader (Molecular Devices, USA).

[7] = system: BCL-2; assay: Inhibitory activity against BCL-2 expression in mouse melanoma cell line B16F1 (Western blotting); format: cell-based; settings: B16F1 cells, UV-B 50 mJ/cm^2 plus peptide in predetermined concentrations, 24 hours, Western blot, FIG. 9
Procedure: The expression of BCL-2, playing a critical role in proliferation of melanocytes, is controlled by MITF. Whether the BCL-2 expression in melanocytes is inhibited by the treatment of the peptide of the present invention was evaluated, using a Western blotting assay. B16F1 cells (Korean Cell Line Bank, Seoul) were added to each well of a 6-well plate (1.5×10^5 cells per well), along with 2 ml of DMEM, and then incubated in a 5% CO2 incubator at 37° C. for 24 hours. Each well was treated with UV-B irradiation (50 mJ/cm^2) and the peptide of SEQ ID NO: 3 in predetermined concentrations. After incubating the plate for 24 hours, the proteins were extracted therefrom. The extracts were subject to the Western blotting assay using an anti-BCL-2 antibody (Santa Cruz Co., CA, USA).

α-melanocyte stimulating hormone (SYSMEHFRWGKPV; ends and bridges not checked; UniProt P01189 138-150, looked up) [α-MSH, melanocyte-stimulating hormone (Sigma), used as stimulus / positive control, reference compound]
expression of tyrosinase (TYR) [1]: increased
tyrosinase activity [2]: increased
expression of TRP-1 [3]: increased
expression of TRP-2 [4]: increased

Lys-Gly-Arg (KGR; Peptide fragment) [SEQ ID NO: 3, MITF-derived peptide fragment]
expression of tyrosinase (TYR) [1]: decreased in concentration-dependent manner
melanin formation (colour of cell culture) [5]: decreased according to the concentrations of the peptide
proliferation of B16F1 cells [6]: decreased in concentration-dependent manner
tyrosinase activity [2]: decreased in concentration-dependent manner
expression of TRP-1 [3]: decreased in concentration-dependent manner
expression levels of BCL-2 [7]: reduced
expression of TRP-2 [4]: decreased in concentration-dependent manner
